# Laboratory results as given in patent US8580782B2, “Substituted pyrazolo[1,5-a]pyrimidines as cyclin dependent kinase inhibitors” (Merck Sharp & Dohme Corp., priority 2002, dated 2013).
# Target: CDK2 (cyclin A or cyclin E complex) (Homo sapiens (Human), UniProt P24941)
# Assay: CDK2 in vitro kinase assay (either cyclin A or E-dependent), SPA with biotinylated Histone H1 peptide and 33P-ATP
# Type: biochemical
# Details: Table 87
# From the text: Assay: • Baculovirus Constructions: Cyclins A and E were cloned into pFASTBAC (Invitrogen) by PCR, with the addition of a GluTAG sequence (EYMPME) at the amino-terminal end to allow purification on anti-GluTAG affinity columns. The expressed proteins were approximately 46 kDa (cyclin E) and 50 kDa (cyclin A) in size. CDK2 was also cloned into pFASTBAC by PCR, with the addition of a haemaglutinin epitope tag at the carboxy-terminal end ([sequence]). The expressed protein was approximately 34 kDa in size. • Enzyme Production: Recombinant baculoviruses expressing cyclins A, E and CDK2 were infected into SF9 cells at a multiplicity of infection (MOI) of 5, for 48 hrs. Cells were harvested by centrifugation at 1000 RPM for 10 minutes. Cyclin-containing (E or A) pellets were combined with CDK2 containing cell pellets and lysed on ice for 30 minutes in five times the pellet volume of lysis buffer containing 50 mM Tris pH 8.0, 0.5% NP40, 1 mM DTT and protease/phosphatase inhibitors (Roche Diagnostics GmbH, Mannheim, Germany). Mixtures were stirred for 30-60 minutes to promote cyclin-CDK2 complex formation. Mixed lysates were then spun down at 15000 RPM for 10 minutes and the supernatant retained. 5 ml of anti-GluTAG beads (for one liter of SF9 cells) were then used to capture cyclin-CDK2 complexes. Bound beads were washed three times in lysis buffer. Proteins were competitively eluted with lysis buffer containing 100-200 ug/mL of the GluTAG peptide. Eluate was dialyzed overnight in 2 liters of kinase buffer containing 50 mM Tris pH 8.0, 1 mM DTT, 10 mM MgCl2, 100 uM sodium orthovanadate and 20% glycerol. Enzyme was stored in aliquots at −70° C. • In Vitro Kinase Assay: CDK2 kinase assays (either cyclin A or E-dependent) were performed in low protein binding 96-well plates (Corning Inc, Corning, N.Y.). Enzyme was diluted to a final concentration of 50 μg/ml in kinase buffer containing 50 mM Tris pH 8.0, 10 mM MgCl2, 1 mM DTT, and 0.1 mM sodium orthovanadate. The substrate used in these reactions was a biotinylated peptide derived from Histone H1 (from Amersham, UK). The substrate was thawed on ice and diluted to 2 μM in kinase buffer. Compounds were diluted in 10% DMSO to desirable concentrations. For each kinase reaction, 20 μl of the 50 μg/ml enzyme solution (1 μg of enzyme) and 20 μl of the 1 μM substrate solution were mixed, then combined with 10 μl of diluted compound in each well for testing. […] The reaction was allowed to run for 1 hour at room temperature. The reaction was stopped by adding 200 μl of stop buffer containing 0.1% Triton X-100, 1 mM ATP, 5 mM EDTA, and 5 mg/ml streptavidine coated SPA beads (from Amersham, UK) for 15 minutes. The SPA beads were then captured onto a 96-well GF/B filter plate (Packard/Perkin Elmer Life Sciences) using a Filtermate universal harvester (Packard/Perkin Elmer Life Sciences.). Non-specific signals were eliminated by washing the beads twice with 2M NaCl then twice with 2 M NaCl with 1% phosphoric acid. The radioactive signal was then measured using a TopCount 96 well liquid scintillation counter (from Packard/Perkin Elmer Life Sciences). • IC50 Determination: Dose-response curves were plotted from inhibition data generated, each in duplicate, from 8 point serial dilutions of inhibitory compounds. Concentration of compound was plotted against % kinase activity, calculated by CPM of treated samples divided by CPM of untreated samples. To generate IC50 values, the dose-response curves were then fitted to a standard sigmoidal curve and IC50 values were derived by nonlinear regression analysis. These kinase activities were generated by using cyclin A or cyclin E using the above-described assay.
row,Structure (SMILES),IC50 [nM]
1,Fc1ccccc1-c1cc(NCc2cccnc2)n2ncc(Br)c2n1 [Example 4],11
2,Fc1ccccc1-c1cc(NCc2cccnc2)n2ncc(Cl)c2n1 [Example 5],21
3,Clc1ccccc1-c1cc(NCc2cccnc2)n2ncc(Br)c2n1 [Example 8],3
4,CC(C)c1cc(NCc2ccncc2)n2ncc(Br)c2n1 [Example 10],42
5,CC(C)(C)c1cc(NCc2ccncc2)n2ncc(Br)c2n1 [Example 12],170
6,N#Cc1cnn2c(NCc3ccncc3)cc(-c3ccccc3)nc12 [Example 16],620
